Laboratory results reported in patent US20110130425A1, “Use of H3 Histaminergic Agonists for the Treatment of Addiction to Drugs of Abuse” (priority 2009, published 2011).

Assays:
[1] = system: alcohol-seeking responses (craving); experiment: Cue-induced reinstatement of ethanol-seeking behavior; type: in vivo, rat; conditions: L-histidine acute injection; rats
Description: The goal of this study is to evaluate the effects of a H3 histaminergic ligand, such as L-histidine, in a gold-standard model in the alcohol field. Namely, cue-induced reinstatement of alcohol-seeking behavior in order to measure alcohol-seeking responses (craving).
Priming and cue-induced reinstatement of ethanol-seeking behavior: Rats are trained to self-administer 10% (v/v) ethanol in a single 30 minute daily session on a Fixed Ratio 1 (FR 1) schedule. During the first three days of training, responses at the left lever are reinforced by delivery of 0.2% (w/v) saccharin solution. Following acquisition of saccharin-reinforced responding, rats are trained to self-administer ethanol. Thus, rats have access to 0.2% saccharin with 5% ethanol for one day, 5% ethanol for 1 day, 0.2% saccharin with 8% ethanol for 1 day, 8% ethanol for 1 day, 0.2% saccharin with 10% ethanol for 1 day, and 10% ethanol for 1 day. During all the training phase, responses at the right lever result in the delivery of a drop of water.
During the conditioning phase, animals are trained to discriminate the availability of ethanol (reward) vs. water (non-reward). This phase starts after completion of the saccharin-fading procedure. […] The 5 second period serves as “time-out” during which responses are recorded but not reinforced. […]

[2] = system: morphine/heroin seeking behaviour; experiment: Extinction and reinstatement of morphine/heroin seeking, mouse intravenous operant self-administration; type: in vivo, C57B16/J mice; conditions: L-histidine 1 g/kg or 2 g/kg; mice
Description: L-Histidine solution: L-Histidine (Sigma, H-8000) at a 155.15 g/mol concentration in 0.34 M phosphoric acid is prepared as follows. 1.5 g L-histidine are dissolved in 12 ml of 0.34 M phosphoric acid to obtain a 0.8 M solution of L-histidine at approximately pH 6. pH is verified, and 0.1 g of NaCl added to a final concentration of 0.9%. Finally, the L-histidine solution is sterilized by filtration.
Animals: Male C57B16/J mice (Charles River, France) are housed individually in controlled laboratory conditions with the temperature maintained at 21±1° C., humidity at 55±10%, and light reversal cycle (light on at 20.00 h, light off at 08.00 h). Mice are tested during the dark phase of a light reversal cycle. Behavioural tests and animal care are conducted in accordance with the standard ethical guidelines (National Institutes of Health 1995; European Communities Directive 86/609 EEC) and the protocols are approved by the local ethical committee (CEEA-PRBB).
Apparatus: The self-administration experiments are conducted in mouse operant chambers (Model ENV-307A-CT, Medical Associates, Georgia, VT, USA). The experimental chambers are equipped with a house light, ventilator fan, drug infusion pump, liquid swivel with counterbalanced arm, and two manipulanda with cue lights that are located on either side of a food dipper. The manipulanda are holes (1.2 cm diameter).
The chambers are housed in sound- and light-attenuated boxes equipped with fans to provide ventilation and white noise. […]
The catheter tubing is inserted 1.3 cm into the right jugular vein and anchored with suture. […] The patency of intravenous catheters is evaluated periodically (approximately every 6 days). Patency is also evaluated whenever drug self-administration behavior appears to deviate dramatically from that observed previously. […]
L-Histidine dosage: The first L-histidine dose is 1 g/kg. […] Dosage for other H3 histaminergic agonists or H3 histaminergic agonist precursors is determined considering the pharmacokinetic and toxicological characteristics of the compound. […]

## N[C@@H](Cc1c[nH]cn1)C(=O)O [L-histidine]
[1]
  alcohol seeking (craving) induced by cues: decreases alcohol seeking
[2]
  cue-induced reinstatement of morphine/heroine seeking: decreases cue-induced reinstatement
  number of sessions required to achieve extinction criteria (morphine/heroin): shortens the number of sessions
  responding during the first extinction session (morphine/heroin): decreases or delays responding
